Experimental data reported in patent EP0887077A1, “Use of azulene derivatives as metalloprotease inhibitors” (BOEHRINGER MANNHEIM GMBH, priority 1997, dated 1998).

Test system: TNF-α
Test: Inhibition of LPS-induced TNFα release from peripheral human leukocytes, TNFα-specific enzyme immunoassay of culture supernatant
Format: cell-based
Conditions: Leukocyte, Periphere humane Leukozyten, LPS über 22 Std., TNFα im Kulturüberstand
Description: Periphere humane Leukozyten werden mit LPS über 22 Std. inkubiert. Der Kultutüberstand wird mit einem TNFα spezifischen Enzym-Immuno-Assay untersucht. Durch Vergleich der für die Messproben erhaltenen TNFα-Konzentrationen mit den ungehemmten Proben wird die prozentuale Hemmung für die einzelne Probe berechnet. Aus der Konzentrationsabhängigkeit der Hemmwerte werden rechnerisch die IC50-Werte bestimmt. […]
Die IC50-Werte der oben genannten Substanzen, die Gegenstand dieses Patentes sind, gegen TNF-α finden sich in der folgenden Tabelle;

IC50 [nM] | Compound
25400 | CCOC(=O)c1c2cccccc-2c(C(=O)OCC)c1N [Verbindung 7, 2-Amino-azulen-1,3-dicarbonsäurediethylester]
26000 | CCOC(=O)c1c2ccc(S)ccc-2c(C(=O)OCC)c1N [Verbindung 8, 2-Amino-6-mercapto-azulen-1,3-dicarbonsäurediethylester]
2700 | CCOC(=O)C(Cc1ccc2c(C(=O)OCC)c(Cl)c(C(=O)OCC)c-2cc1)=NO [Verbindung 9, 2-Chloro-6-(2-ethoxycarbonyl-2-hydroxyimino-ethyl)-azulen-1,3-dicarbonsäurediethylester]
10700 | Cc1cc(C=CC=O)c2c(C)ccc(C(C)C)cc1-2 [Verbindung 10, 3-(5-isopropyl-3,8-dimethyl-azulen-1-yl)-propenal]

The next lines start with the compound.

Compound | IC50 [nM]
CCOC(=O)Cc1ccc2c(C(=O)OCC)c(N)c(C(=O)OCC)c-2cc1 [Verbindung 1, 2-Amino-6-ethoxycarbonylmethyl-azulen-1,3-dicarbonsäurediethylester] | 200
CCOC(=O)Cc1ccc2c(C(=O)OCC)c(N(C(C)=O)C(C)=O)c(C(=O)OCC)c-2cc1 [Verbindung 2, 2-Diacetylamino-6-ethoxycarbonylmethyl-azulen-1,3-dicarbonsäurediethylester] | 50
CCOC(=O)c1c2ccc(C(C(=O)OCC)C(=O)OCC)ccc-2c(C(=O)OCC)c1N(C(C)=O)C(C)=O [Verbindung 3, 6-(Bis-ethoxycarbonylmethyl)-2-diacetylamino-azulen-1,3-dicarbonsäurediethylester] | 180
CCOC(=O)c1c2ccc(Br)ccc-2c(C(=O)OCC)c1N(C(C)=O)C(C)=O [Verbindung 4, 6-Bromo-2-diacetylamino-azulen-1,3-dicarbonsäurediethylester] | 1300
CCOC(=O)c1c2ccc(Br)ccc-2c(C(=O)OCC)c1NC(C)=O [Verbindung 5, 2-Acetylamino-6-bromo-azulen-1,3-dicarbonsäurediethylester] | 1100
CCOC(=O)Cc1ccc2c(C(=O)OCC)c(OCC)c(C(=O)OCC)c-2cc1 [Verbindung 6, 2-Ethoxy-6-ethoxycarbonylmethyl-azulen-1,3-dicarbonsäurediethylester] | 11900
